# Measured values from patent publication US20040110177A1, “Method for identifying functional nucleic acids” (priority 2003, published 2004).
# Assays:
# Type in all cases: cell-based, human
# Hela S3 = experiment: Anti-Fas (CH-11) induced apoptosis with kinase inhibitors, FACS sub-G1 nuclei, Hela S3; conditions: Hela S3, 100 ng/ml CH-11, no FCS; SU 5402 10 μM, AG 1295 1 μM, SB 203580 10 μM
# Protocol: (§1) Cells were grown in Ham's F12 medium without FCS and treated with 100 ng/ml anti-Fas antibody CH-11 with and without inhibitors. Apoptosis was measured by FACS analysis as described in the examples. SU 5402: 10 μM, AG 1295: 1 μM, SB 203580: 10 μM, PD 98059: 25 μM.
# (§2) 50000 cells per well obtained from the parental cell line Hela S3 or from the clones, respectively, were grown in a 12 well cell culture dish for 2 days in 2 ml Ham's F12 medium containing 10% FCS. On the third day the cells were washed twice with 1 ml Ham's F12 medium and then the medium exchanged against 1 ml Ham's F12 medium. On the next day the medium was supplemented with the respective inhibitors and 100 to 200 ng/ml CH-11. On the next day the medium was decanted and transferred to an Eppendorf tube. The cells were washed once with 200 μl PBS, the PBS was transferred to the respective Eppendorf tube. Then the remaining cells were also transferred to the respective Eppendorf tube after treatment with EDTA/trypsin in PBS. The cells were pelleted by centrifugation, suspended in 500 μl hypotonic buffer (0.1% sodium citrate, 0.1% Triton-X100, 20 μg/ml propidium iodide) and incubated for 2-24 hours at 4° C. The resutling cell nuclei were analyzed by FACS.
# (§3) The propidium iodide fluorescence of single nuclei was determined using a FACSCalibur (Becton Dickinson) cytometer. The forward scatter light (FSC) and the side scatter light (SSC) were recorded simultaneously. The FSC peak was adjusted at channel 500 in a 1024 channel linear scale and the red fluorescence peak at channel 200 of a logarithmic scale. The FSC cut-off value was determined by gating to 95% of the greatest nuclei of a negative control without supplements. Nuclei were classified as apoptotic when a subdiploid signal between the G1/G0 peak and channel 10 was present.
# [1] = test system: clone 14 (apoptosis-resistant Hela S3 clone); experiment: Anti-Fas (CH-11) induced apoptosis with kinase inhibitors, FACS sub-G1 nuclei, clone 14; conditions: clone 14, 100 ng/ml CH-11, no FCS; for change in number of apoptotic cells / apoptosis rate (in words): AG 1295 1 μM, PD 98059 25 μM; for increase in apoptosis: SU 5402 10 μM, SB 203580 10 μM
# Protocol: as §1
# The cervix carcinoma cell line Hela S3 (ATCC CCL-2.2) was plated on 10 cm cell culture dishes (10^5 cells) in Ham's F12 growth medium containing 10% FCS. On the next day the medium was exchanged against medium without FCS supplemented with 100 ng/ml apoptosis activating anti-Fas antibody CH-11 (Coulter Immunotech). After 3 days when most of the cells were dead, the medium was exchanged once more against the medium containing 10% FCS without antibody. The surviving cells were clonally cultivated for 3 weeks. The clones were picked and expanded.
# as §2, §3
# [2] = test system: clone 5 (apoptosis-resistant Hela S3 clone); experiment: Anti-Fas (CH-11) induced apoptosis with kinase inhibitors, FACS sub-G1 nuclei, clone 5; conditions: clone 5, CH-11; SU 5402, AG 1295
# Protocol: as §1
# (§4) The cervix carcinoma cell line Hela S3 (ATCC CCL-2.2) was plated on 10 cm cell culture dishes (10^5 cells) in Ham's F12 growth medium containing 10% FCS. On the next day the medium was exchanged against medium without FCS supplemented with 100 ng/ml apoptosis activating anti-Fas antibody CH-11 (Coulter Immunotech). […]
# (§5) 50000 cells per well obtained from the parental cell line Hela S3 or from the clones, respectively, were grown in a 12 well cell culture dish for 2 days in 2 ml Ham's F12 medium containing 10% FCS. […] The resutling cell nuclei were analyzed by FACS.
# as §3, with “Nuclei were classified as apoptotic when a subdiploid signal between the G1/G0 peak and channel 10 was present.” left out
# [3] = test system: clone 20 (apoptosis-resistant Hela S3 clone); experiment: Anti-Fas (CH-11) induced apoptosis with kinase inhibitors, FACS sub-G1 nuclei, clone 20; conditions: clone 20, 100 ng/ml CH-11, no FCS; SB 203580 10 μM, PD 98059 25 μM
# Protocol: as §1, §4, §5
# as §3, with “Nuclei were classified as apoptotic when a subdiploid signal between the G1/G0 peak and channel 10 was present.” left out
compound,measurement,setting,value
Cc1cc2ncc(-c3ccccc3)nc2cc1C [AG 1295],increase in apoptosis,Hela S3,about 30%
same,change in number of apoptotic cells / apoptosis rate (in words),[1],nearly in a doubling of the number of apoptotic cells
same,increase in apoptosis,[2],30%
COc1cccc(-c2cc(=O)c3ccccc3o2)c1N [PD 98059],change in number of apoptotic cells / apoptosis rate (in words),[1],doubling of the apoptosis rate
same,change in apoptosis rate (in words),[3],triples the apoptosis rate
C[S+]([O-])c1ccc(-c2nc(-c3ccncc3)c(-c3ccc(F)cc3)[nH]2)cc1 (centres unmarked) [SB 203580],increase in apoptosis,Hela S3,25%
same,increase in apoptosis,[1],60%
same,change in apoptosis rate (in words),[3],slight increase of apoptosis
Cc1c[nH]c(/C=C2\C(=O)Nc3ccccc32)c1CCC(=O)O [SU 5402],increase in apoptosis,Hela S3,about 50%
same,increase in apoptosis,[1],~300%
same,increase in apoptosis,[2],about 50%
